Reference: patent US7705003B2, “Cyclohexylamides as dopamine D3, D2 and 5-HT1A Antagonists” (Richter Gedeon Vegyeszeti Gyar RT., priority 2005, dated 2010)

Columns and labels:
[1] = target: T1, rat recombinant D3 receptors (Rattus norvegicus, UniProt P19020); assay: D3 receptor binding ([3H]spiperone); conditions: rat recombinant D3 receptors expressed in Sf9 cells
T1 construct: purchased Perkin-Elmer 6110139; host or cells: Sf9 cells

D2 receptor = D2 receptor (Rattus norvegicus, UniProt P61169); assay: D2 receptor binding ([3H]spiperone, rat brain striatal membrane)
D2 receptor, sequence (P61169 1-415 isoform P61169-2): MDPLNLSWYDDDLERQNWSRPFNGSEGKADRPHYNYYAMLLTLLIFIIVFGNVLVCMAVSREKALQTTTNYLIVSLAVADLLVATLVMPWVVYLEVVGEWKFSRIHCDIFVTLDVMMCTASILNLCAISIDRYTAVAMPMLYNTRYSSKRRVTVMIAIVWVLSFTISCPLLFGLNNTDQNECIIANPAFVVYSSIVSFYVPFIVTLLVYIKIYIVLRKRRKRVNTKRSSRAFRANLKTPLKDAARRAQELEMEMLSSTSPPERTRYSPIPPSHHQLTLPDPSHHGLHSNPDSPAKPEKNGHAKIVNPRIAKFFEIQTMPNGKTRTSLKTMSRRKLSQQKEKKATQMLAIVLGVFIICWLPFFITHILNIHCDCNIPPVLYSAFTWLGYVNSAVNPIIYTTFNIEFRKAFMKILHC
Method: Non-specific binding was determined in the presence of 1 μM (+) butaclamol.

α1 receptor = assay: α-1 receptor binding ([3H]-prazosine, rat cortical membrane)
Method: α1 receptor binding study was performed according to the methods described by Greengrass and Bremner (Eur. J. Pharmacol., 55:323-326, 1979) on rat cortical membrane preparation using [^3H]-prazosine (0.22-0.37 nM) as ligand. The non-specific binding was determined in the presence of 10 μM phentolamine.

5-HT1A receptor = target: T2, 5-HT1A receptor (Rattus norvegicus, UniProt P19327); assay: 5-HT1A binding ([3H]8-OH-DPAT, rat hippocampal membrane); conditions: [3H]8-hydroxy-2-(di-n-propylamino)-tetralin
T2 construct: on rat hippocampal membrane preparation; from tissue; host or cells: rat hippocampus membranes
T2 sequence (P19327 1-422): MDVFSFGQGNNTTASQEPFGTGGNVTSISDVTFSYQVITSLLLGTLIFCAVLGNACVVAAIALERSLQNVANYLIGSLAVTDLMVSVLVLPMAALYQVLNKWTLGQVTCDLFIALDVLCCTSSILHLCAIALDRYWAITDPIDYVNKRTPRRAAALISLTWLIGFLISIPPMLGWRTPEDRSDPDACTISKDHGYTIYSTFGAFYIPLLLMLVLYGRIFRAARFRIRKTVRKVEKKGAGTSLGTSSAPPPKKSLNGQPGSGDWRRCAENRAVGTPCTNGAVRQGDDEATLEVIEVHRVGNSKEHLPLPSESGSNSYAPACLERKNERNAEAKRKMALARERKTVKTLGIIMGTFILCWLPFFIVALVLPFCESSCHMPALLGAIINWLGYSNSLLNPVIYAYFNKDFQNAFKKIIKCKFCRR
Method: The non-specific binding was determined in the presence of 10 μM serotonin creatinine sulphate.

Male CD-1 mice = assay: Inhibition of apomorphine induced climbing; format: in vivo; conditions: for ED50: Mus musculus; for ranking of activity in apomorphine climbing assay: apomorphine climbing in mice
Method: With respect to the expected clinical application of the compounds of the present invention in addition to their receptor binding profile their in vivo efficacy is a crucial issue as well. Therefore, in vivo potency and efficacy of the compounds of formula (I) were studied in the apomorphine climbing assay, an animal screening test for antipsychotic activity.
5. Inhibition of Apomorphine Induced Climbing
Male CD-1 mice weighing 20-25 g were injected orally (n=12) with the test compound or vehicle. Fifty minutes later the animals were placed into cylindrical cages with walls of vertical metal bars. After 10 minutes habituation the mice were treated with apomorphine (1.5 mg/kg sc.). […] Scores were summed for each individual and group means were calculated. Drug effect was expressed and plotted as percentage inhibition of the apomorphine induced behaviour.

T1 sequence (P19020 whole entry): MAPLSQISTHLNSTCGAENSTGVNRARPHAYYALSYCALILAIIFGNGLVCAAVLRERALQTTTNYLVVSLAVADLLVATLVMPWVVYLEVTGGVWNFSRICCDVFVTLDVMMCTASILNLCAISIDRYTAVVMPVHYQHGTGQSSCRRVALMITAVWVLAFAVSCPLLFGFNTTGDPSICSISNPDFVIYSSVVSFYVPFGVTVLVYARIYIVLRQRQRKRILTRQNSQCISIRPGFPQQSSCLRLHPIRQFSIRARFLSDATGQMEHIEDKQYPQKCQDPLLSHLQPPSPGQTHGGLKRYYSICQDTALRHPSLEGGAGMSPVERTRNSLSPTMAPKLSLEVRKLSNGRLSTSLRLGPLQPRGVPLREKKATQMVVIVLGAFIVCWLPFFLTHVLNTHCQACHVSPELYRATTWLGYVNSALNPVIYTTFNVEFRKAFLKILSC

SMILES | IC50 [1] [nM] | IC50 (D2 receptor) [nM] | IC50 (α1 receptor) [nM] | IC50 (5-HT1A receptor) [nM] | ED50 (Male CD-1 mice) [mg/kg] | melting point [°C] | ranking of activity in apomorphine climbing assay (Male CD-1 mice)
CC(=O)N[C@H]1CC[C@H](CCN2CCN(c3cccc4c3CCCC4)CC2)CC1 [Compound 9, trans-N-{4-[2-[4-(5,6,7,8-tetrahydronaphthalen-1-yl)-piperazin-1-yl]-ethyl]-cyclohexyl}-acetamide] | < 2 | 10 to 40 | > 200 | 1 to 20 | 0.26 | 187 to 189 | 
O=C(N[C@H]1CC[C@H](CCN2CCN(c3cccc4c3CCCC4)CC2)CC1)N1CCOCC1 [Compound 12, trans-N-{4-[2-[4-(5,6,7,8-tetrahydronaphthalen-1-yl)-piperazin-1-yl]-ethyl]-cyclohexyl}-morpholine-4-carboxamide] | < 2 | 10 to 40 | 40 to 200 | 1 to 20 | 0.2 | 178 to 180 | 
CCNC(=O)N[C@H]1CC[C@H](CCN2CCN(c3cccc4c3CCC4)CC2)CC1 [Compound 5, trans-1-{4-[2-[4-(indan-4-yl)-piperazin-1-yl]-ethyl]-cyclohexyl}-3-ethyl-urea] | < 2 | 10 to 40 | 40 to 200 | 1 to 20 | 0.47 | 198 to 200 | 
CN(C)C(=O)N[C@H]1CC[C@H](CCN2CCN(c3cccc4c3CCCC4)CC2)CC1 [Compound 11, trans-1-{4-[2-[4-(5,6,7,8-tetrahydronaphthalen-1-yl)-piperazin-1-yl]-ethyl]-cyclohexyl}-3,3-dimethyl-urea] | < 2 | 10 to 40 | 40 to 200 | 1 to 20 | 0.23 | 190 to 193 | 
CCC(=O)N[C@H]1CC[C@H](CCN2CCN(c3cccc4c3CCC4)CC2)CC1 [Compound 2, trans-N-{4-[2-[4-(indan-4-yl)-piperazin-1-yl]-ethyl]-cyclohexyl}-propionamide] | < 2 | 10 to 40 | 40 to 200 | 1 to 20 | 0.21 | 194 to 196 | 
CC(=O)N[C@H]1CC[C@H](CCN2CCN(c3cccc4c3CCC4)CC2)CC1 [Compound 1, trans-N-{4-[2-[4-(indan-4-yl)-piperazin-1-yl]-ethyl]-cyclohexyl}-acetamide] | < 2 | 10 to 40 | 40 to 200 | 1 to 20 | 0.14 | 202 to 204 | most active
Cc1cc2c(s1)Nc1ccccc1N=C2N1CCN(C)CC1 [Olanzapine, reference compound] |  |  |  |  | 1.3 |  | 
O=C(N[C@H]1CC[C@H](CCN2CCN(c3cccc4c3CCC4)CC2)CC1)N1CCOCC1 [Compound 6, trans-N-{4-[2-[4-(indan-4-yl)-piperazin-1-yl]-ethyl]-cyclohexyl}-morpholine-4-carboxamide] | < 2 | 10 to 40 | 40 to 200 | 1 to 20 | 0.16 | 181 to 182 | most active
CN(C)C(=O)N[C@H]1CC[C@H](CCN2CCN(c3cccc4c3CCC4)CC2)CC1 [Compound 3, trans-1-{4-[2-[4-(indan-4-yl)-piperazin-1-yl]-ethyl]-cyclohexyl}-3,3-dimethyl-urea] | < 2 | 10 to 40 | 40 to 200 | 1 to 20 | 0.11 | 150 to 152 | most active
CN(C)C(=O)N[C@H]1CC[C@H](CN2CCN(c3cccc4c3CCC4)CC2)CC1 [Compound 8, trans-1-{4-[[4-(indan-4-yl)-piperazin-1-yl]-methyl]-cyclohexyl}-3,3-dimethyl-urea] |  |  |  |  |  | 152 to 154 | 
CCC(=O)N[C@H]1CC[C@H](CCN2CCN(c3cccc4c3CCCC4)CC2)CC1 [Compound 10, trans-N-{4-[2-[4-(5,6,7,8-tetrahydronaphthalen-1-yl)-piperazin-1-yl]-ethyl]-cyclohexyl}-propionamide] | < 2 | 10 to 40 | > 200 | 1 to 20 | 0.35 | 182 to 185 | 
O=C1CCc2ccc(OCCCCN3CCN(c4cccc(Cl)c4Cl)CC3)cc2N1 [Aripiprazole, reference compound] |  |  |  |  | 1 |  | 
NC(=O)N[C@H]1CC[C@H](CCN2CCN(c3cccc4c3CCC4)CC2)CC1 [Compound 7, trans-1-{4-[2-[4-(indan-4-yl)-piperazin-1-yl]-ethyl]-cyclohexyl}-urea] |  |  |  |  |  | 204 to 206 | 
CCN(CC)C(=O)N[C@H]1CC[C@H](CCN2CCN(c3cccc4c3CCC4)CC2)CC1 [Compound 4, trans-1-{4-[2-[4-(indan-4-yl)-piperazin-1-yl]-ethyl]-cyclohexyl}-3,3-diethyl-urea] | < 2 | 10 to 40 | 40 to 200 | 1 to 20 | 0.46 | 157 to 159 | 
